# According to patent US10919785B2, “Hydraulic conveyor of floating objects provided with a device for sanitising conveying composition, plant provided with such a conveyor and sanitising method” (MAF AGROBOTIC, priority 2016, dated 2021):
# Experiments:
# [1] = Example 3: UV/hydrogen peroxide sanitising of 90 m^3 apple conveying water, six photolysis chambers in series; format: physicochemical
# Description: A hydraulic conveyor of a plant for sorting and packaging apples is selected containing a volume of 90 m^3 of water as composition for conveying Ariane, Rosy Glow and Pink Lady apples. A flow rate of conveying composition of 36 m^3/h is established in the external circuit and a flow rate of photoreactive composition of […] is established, the photoreactive composition being an aqueous solution of hydrogen peroxide at an initial concentration of 400 g/l. Under these flow conditions, all of the volume of the conveying composition of the hydraulic conveyor is theoretically treated within 2.5 hours. The composition at the inlet of the sanitising device has an initial hydrogen peroxide proportion in the order of 3 ppm sufficient to allow the decontamination of the composition at the outlet of the sanitising device formed of six photolysis chambers mounted in series, each chamber comprising five fluorescent tubes with an individual power of 200 W.
# The results obtained are shown in Table 2 hereinafter in which the concentration values of boscalid from the apples conveyed with the composition to be sanitised at the inlet of the sanitising device (EC) and at the outlet of sanitising device (SC) are given in μg/l. The column SE/EC represents the ratio multiplied by 100 of the boscalid concentration at the outlet of the sixth chamber of the photolysis tank to the boscalid concentration at the inlet of the photolysis tank (EC). The column C/C0 represents the ratio of the boscalid concentration measured at the inlet of the sanitising device over time to the initial boscalid concentration (t=0).
# [2] = Example 6: pilot device, degradation of different amounts of boscalid (FIG. 7); format: physicochemical; conditions: boscalid 25, 80 and 200 μg/l; hydrogen peroxide 2 mg/l continuously added; 6 m^3/h
# Description: A semi-industrial pilot device in accordance with one aspect of the invention comprises a tank for recirculating water to be treated of a volume of 1000 l, a circulation pump ensuring a circulation flow of the water to be treated in a sanitising device with a flow rate between 4 m^3 to 8 m^3/h. The sanitising device comprises a photolysis chamber comprising an inlet for water from the recirculation tank and an outlet for sanitised water directed to the recirculation tank. The photolysis chamber is formed of a rigid tubular envelope, of which the external wall is opaque to light and forming an inner space suitable for receiving five fluorescent tubes with a longitudinal axis extending in parallel with the longitudinal axis of the rigid tubular envelope. The inner volume of the decontamination reactor is in the order of […].
# The five fluorescent tubes are tubes of 200 W emitting light at a wavelength of 254 nm and arranged longitudinally in the tubular envelope at the five points of a regular pentagon and in contact with the water to be treated flowing in the photolysis chamber. In this configuration of the sanitising device, the water to be sanitised flowing in contact with the five fluorescent tubes is subjected to substantially homogeneous illumination in the order of 500 mJ/cm^2 for a circulation flow rate of water to be sanitised in the order of 6 m^3/h. […]
# [3] = format: physicochemical; conditions: 19 seconds
# Description: A hydraulic conveyor of a plant for sorting and packaging apples containing a volume of 90 m^3 of water as composition for conveying Ariane, Rosy Glow and Pink Lady apples comprises a sanitising device in accordance with the invention formed of six photolysis chambers mounted in series, each chamber comprising five fluorescent tubes having an individual power of 200 W. The flow rate of the composition for conveying apples in the sanitising device is 36 m^3/h. It has been observed that the plurality of photolysis chambers mounted in series allows a rate of degradation of 96% of the initial boscalid to be achieved with a flow rate of the composition to be treated of 36 m^3/h and for an average residence time of the conveying composition in the sanitising device in the order of 19 seconds.
structure (smiles),measurement,setting,value
O=C(Nc1ccccc1-c1ccc(Cl)cc1)c1cccnc1Cl [boscalid],boscalid concentration at the inlet of the sanitising device (EC),[1]; time 0 hours,2.83 µg/L
same,percent boscalid removed between inlet and outlet of the sanitising device (100 x (1 - SC/EC)),[1]; time 0 hours,100%
same,boscalid concentration at the inlet of the sanitising device (EC),[1]; time 4 hours,4.76 µg/L
same,boscalid concentration at the outlet of the sanitising device (SC),[1]; time 4 hours,0.065 µg/L
same,percent boscalid removed between inlet and outlet of the sanitising device (100 x (1 - SC/EC)),[1]; time 4 hours,98.6%
same,boscalid concentration at the inlet of the sanitising device (EC),[1]; time 7 hours,2.84 µg/L
same,boscalid concentration at the outlet of the sanitising device (SC),[1]; time 7 hours,0.206 µg/L
same,percent boscalid removed between inlet and outlet of the sanitising device (100 x (1 - SC/EC)),[1]; time 7 hours,92.8%
same,C/C0 (inlet boscalid concentration over initial concentration),[1]; time 7.1 hours,1
same,boscalid concentration at the inlet of the sanitising device (EC),[1]; time 7.1 hours,4.19 µg/L
same,percent boscalid removed between inlet and outlet of the sanitising device (100 x (1 - SC/EC)),[1]; time 7.1 hours,100%
same,C/C0 (inlet boscalid concentration over initial concentration),[1]; time 10.5 hours,0.41
same,boscalid concentration at the inlet of the sanitising device (EC),[1]; time 10.5 hours,1.73 µg/L
same,boscalid concentration at the outlet of the sanitising device (SC),[1]; time 10.5 hours,0.062 µg/L
same,percent boscalid removed between inlet and outlet of the sanitising device (100 x (1 - SC/EC)),[1]; time 10.5 hours,96.4%
same,C/C0 (inlet boscalid concentration over initial concentration),[1]; time 12.5 hours,0.32
same,boscalid concentration at the inlet of the sanitising device (EC),[1]; time 12.5 hours,1.35 µg/L
same,percent boscalid removed between inlet and outlet of the sanitising device (100 x (1 - SC/EC)),[1]; time 12.5 hours,100%
same,C/C0 (inlet boscalid concentration over initial concentration),[1]; time 14.75 hours,0.41
same,boscalid concentration at the inlet of the sanitising device (EC),[1]; time 14.75 hours,1.71 µg/L
same,boscalid concentration at the outlet of the sanitising device (SC),[1]; time 14.75 hours,0.058 µg/L
same,percent boscalid removed between inlet and outlet of the sanitising device (100 x (1 - SC/EC)),[1]; time 14.75 hours,96.6%
same,C/C0 (inlet boscalid concentration over initial concentration),[1]; time 17.25 hours,0.28
same,boscalid concentration at the inlet of the sanitising device (EC),[1]; time 17.25 hours,1.18 µg/L
same,boscalid concentration at the outlet of the sanitising device (SC),[1]; time 17.25 hours,0.040 µg/L
same,percent boscalid removed between inlet and outlet of the sanitising device (100 x (1 - SC/EC)),[1]; time 17.25 hours,96.6%
same,C/C0 (inlet boscalid concentration over initial concentration),[1]; time 19.25 hours,0.45
same,boscalid concentration at the inlet of the sanitising device (EC),[1]; time 19.25 hours,1.88 µg/L
same,percent boscalid removed between inlet and outlet of the sanitising device (100 x (1 - SC/EC)),[1]; time 19.25 hours,100%
same,C/C0 (inlet boscalid concentration over initial concentration),[1]; time 22.75 hours,0.25
same,boscalid concentration at the inlet of the sanitising device (EC),[1]; time 22.75 hours,1.07 µg/L
same,boscalid concentration at the outlet of the sanitising device (SC),[1]; time 22.75 hours,0.064 µg/L
same,percent boscalid removed between inlet and outlet of the sanitising device (100 x (1 - SC/EC)),[1]; time 22.75 hours,94%
same,C/C0 (inlet boscalid concentration over initial concentration),[1]; time 24.75 hours,0.15
same,boscalid concentration at the inlet of the sanitising device (EC),[1]; time 24.75 hours,0.64 µg/L
same,boscalid concentration at the outlet of the sanitising device (SC),[1]; time 24.75 hours,0.057 µg/L
same,percent boscalid removed between inlet and outlet of the sanitising device (100 x (1 - SC/EC)),[1]; time 24.75 hours,91.2%
same,C/C0 (inlet boscalid concentration over initial concentration),[1]; time 28.75 hours,0.16
same,boscalid concentration at the inlet of the sanitising device (EC),[1]; time 28.75 hours,0.66 µg/L
same,boscalid concentration at the outlet of the sanitising device (SC),[1]; time 28.75 hours,0.039 µg/L
same,percent boscalid removed between inlet and outlet of the sanitising device (100 x (1 - SC/EC)),[1]; time 28.75 hours,94%
same,C/C0 (inlet boscalid concentration over initial concentration),[1]; time 29.75 hours,0.22
same,boscalid concentration at the inlet of the sanitising device (EC),[1]; time 29.75 hours,0.93 µg/L
same,percent boscalid removed between inlet and outlet of the sanitising device (100 x (1 - SC/EC)),[1]; time 29.75 hours,100%
same,C/C0 (inlet boscalid concentration over initial concentration),[1]; time 32.25 hours,0.19
same,boscalid concentration at the inlet of the sanitising device (EC),[1]; time 32.25 hours,0.79 µg/L
same,boscalid concentration at the outlet of the sanitising device (SC),[1]; time 32.25 hours,0.040 µg/L
same,percent boscalid removed between inlet and outlet of the sanitising device (100 x (1 - SC/EC)),[1]; time 32.25 hours,95%
same,C/C0 (inlet boscalid concentration over initial concentration),[1]; time 34.75 hours,0.17
same,boscalid concentration at the inlet of the sanitising device (EC),[1]; time 34.75 hours,0.73 µg/L
same,boscalid concentration at the outlet of the sanitising device (SC),[1]; time 34.75 hours,0.043 µg/L
same,percent boscalid removed between inlet and outlet of the sanitising device (100 x (1 - SC/EC)),[1]; time 34.75 hours,94.1%
same,residual amount of boscalid,[2],less than 80%
same,rate of degradation of the initial boscalid,[3],96%
